Bounds are passed on as bounds.

The test concerns Human primary T cells. The experiment in a line: IL-2 ELISA, human primary T cell, anti-CD3+CD28+ (whole cell assay). The class given is cell-based. The settings on record: Homo sapiens, T-cell, 24 h, human primary T cells stimulated with anti-CD3 + anti-CD28, 24 hours. The method, boiled down:
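IL-2 secreted over 24 h at 37° C was quantified by ELISA after plate-bound αCD3 (1 μg/ml) and αCD28 (5 μg/ml) stimulation, or PMA (0.5 ng/ml) with ionomycin (0.1 μM) as counter-screen. Cells were IL-2-starved primary human T cells, expanded from volunteer PBMC and exposed to compound for 1 hr beforehand.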
For `CC1(C)CC(Nc2nc(Nc3cc(F)cc(OCCn4ccnn4)c3)ncc2F)CC(C)(C)N1` [Compound I-8, N2-(3-(2-(1H-1,2,3-triazol-1-yl)ethoxy)-5-fluorophenyl)-5-fluoro-N4-(2,2,6,6-tetramethylpiperidin-4-yl)pyrimidine-2,4-diamine], the IC50 is > 1000 nM.

Regarding `CC1(C)CC(Nc2nc(Nc3ccc(OC4CCNCC4)c(OC(F)F)c3)ncc2F)CC(C)(C)N1` [III-28, N2-(3-(difluoromethoxy)-4-(piperidin-4-yloxy)phenyl)-5-fluoro-N4-(2,2,6,6-tetramethylpiperidin-4-yl)pyrimidine-2,4-diamine], the IC50 was > 1000 nM.

For `CN1C(C)(C)CC(Nc2nc(Nc3ccc(Oc4cccnc4)c(OC(F)F)c3)ncc2F)CC1(C)C` [Compound I-44, N2-(3-(difluoromethoxy)-4-(pyridin-3-yloxy)phenyl)-5-fluoro-N4-(1,2,2,6,6-pentamethylpiperidin-4-yl)pyrimidine-2,4-diamine], the IC50 was in the range of 250 to 500 nM.

`CN1C(C)(C)CC(Nc2nc(Nc3ccc(OCCCn4cccc4)c(OC(F)F)c3)ncc2F)CC1(C)C` [Compound I-41, N2-(4-(3-(1H-pyrrol-1-yl)propoxy)-3-(difluoromethoxy)phenyl)-5-fluoro-N4-(1,2,2,6,6-pentamethylpiperidin-4-yl)pyrimidine-2,4-diamine]: the IC50 was < 250 nM.

Take `CN1C(C)(C)CC(Nc2nc(Nc3ccc(OC(C)(C)CN4CCOCC4)c(OC(F)F)c3)ncc2F)CC1(C)C` [Compound I-123, N2-(4-(2-methyl-1-morpholinopropan-2-yloxy)-3-(difluoromethoxy)phenyl)-5-fluoro-N4-(1,2,2,6,6-pentamethylpiperidin-4-yl)pyrimidine-2,4-diamine]: the IC50 is < 250 nM.

Consider `CC1(C)CC(Nc2nc(Nc3ccc(OC4CCCN(S(C)(=O)=O)CC4)c(OC(F)F)c3)ncc2F)CC(C)(C)N1` (stereo not shown) [III-90, N2-(3-(difluoromethoxy)-4-(1-(methylsulfonyl)azepan-4-yloxy)phenyl)-5-fluoro-N4-(2,2,6,6-tetramethylpiperidin-4-yl)pyrimidine-2,4-diamine], for which the 50% inhibitory concentration (IC50) lay in the range of 500 to 1000 nM.

Consider `CC(C)N1CC(Oc2ccc(Nc3ncc(F)c(NC4CC(C)(C)NC(C)(C)C4)n3)cc2OC(F)F)C1` [III-39, N2-(3-(Difluoromethoxy)-4-(1-isopropylazetidin-3-yloxy)phenyl)-5-fluoro-N4-(2,2,6,6-tetramethylpiperidin-4-yl)pyrimidine-2,4-diamine], for which the IC50 was 500 to 1000 nM.

Turning to `CN1C(C)(C)CC(Nc2nc(Nc3cc(Cl)cc(-c4nnnn4C)c3)ncc2F)CC1(C)C` [III-135, N2-(3-chloro-5-(1-methyl-1H-tetrazol-5-yl)phenyl)-5-fluoro-N4-(1,2,2,6,6-pentamethylpiperidin-4-yl)pyrimidine-2,4-diamine], the IC50 was < 250 nM.

For the molecule `CC(C)Oc1ncc(Nc2ncc(F)c(NC3CC(C)(C)N(C)C(C)(C)C3)n2)cc1-c1nnnn1C1CC1` [Compound I-137, N2-(5-(1-cyclopropyl-1H-tetrazol-5-yl)-6-isopropoxypyridin-3-yl)-5-fluoro-N4-(1,2,2,6,6-pentamethylpiperidin-4-yl)pyrimidine-2,4-diamine], the IC50 is < 250 nM.

Turning to `Cc1nnnn1-c1cc(Nc2ncc(F)c(NC3CC(C)(C)NC(C)(C)C3)n2)cnc1OC(C)C` [Compound I-114, 5-fluoro-N2-(6-isopropoxy-5-(5-methyl-1H-tetrazol-1-yl)pyridin-3-yl)-N4-(2,2,6,6-tetramethylpiperidin-4-yl)pyrimidine-2,4-diamine], the IC50 was < 250 nM.

Usually IC50 stands for the concentration needed to halve the response being measured.
